What was measured:
WT HIV-1 (IIIB) = test: microbe, parasite or virus in culture; assay type: cell-based; conditions: for EC50: Human immunodeficiency virus 1, IIIB, MT4, read-out: EC50 IIIB; for SI IIIB: ratio of CC50/EC50
HIV-2 strain (ROD) = test: Anti-HIV-2; assay type: cell-based; conditions: for EC50: Human immunodeficiency virus 2, MT4, read-out: EC50 ROD; for SI ROD: ratio of CC50/EC50
[1] = test system: HIV-1 L100I mutant strain; test: microbe, parasite or virus in culture; assay type: cell-based; conditions: for SI L100I: CC50/EC50; for EC50: Human immunodeficiency virus 1, MT4, read-out: EC50 L100I; for RF L100I: ratio of EC50 (resistant viral strain)/EC50 (wild-type viral strain)
[2] = test system: HIV-1 K103N mutant strain; test: microbe, parasite or virus in culture; assay type: cell-based; conditions: for SI K103N: CC50/EC50; for EC50: Human immunodeficiency virus 1, MT4, read-out: EC50 K103N; for RF K103N: ratio of EC50 (resistant viral strain)/EC50 (wild-type viral strain)
[3] = test system: HIV-1 Y181C mutant strain; test: microbe, parasite or virus in culture; assay type: cell-based; conditions: for SI Y181C: CC50/EC50; for EC50: Human immunodeficiency virus 1, MT4, read-out: EC50 Y181C; for RF Y181C: ratio of EC50 (resistant viral strain)/EC50 (wild-type viral strain)
[4] = test system: HIV-1 Y188L mutant strain; test: microbe, parasite or virus in culture; assay type: cell-based; conditions: for SI Y188L: CC50/EC50; for EC50: Human immunodeficiency virus 1, MT4, read-out: EC50 Y188L; for RF Y188L: ratio of EC50 (resistant viral strain)/EC50 (wild-type viral strain)
[5] = test system: HIV-1 E138K mutant strain; test: microbe, parasite or virus in culture; assay type: cell-based; conditions: for SI E138K: CC50/EC50; for EC50: Human immunodeficiency virus 1, MT4, read-out: EC50 E138K; for RF E138K: ratio of EC50 (resistant viral strain)/EC50 (wild-type viral strain)
[6] = test system: HIV-1 F227L + V106A double-mutant strain; test: microbe, parasite or virus in culture; assay type: cell-based; conditions: for SI F227L + V106A: CC50/EC50; for EC50: Human immunodeficiency virus 1, MT4, read-out: EC50 F227L + V106A; for RF F227L + V106A: ratio of EC50 (resistant viral strain)/EC50 (wild-type viral strain)
[7] = test system: HIV-1 RES056 (K103N + Y181C) double-mutant strain; test: microbe, parasite or virus in culture; assay type: cell-based; conditions: for SI RES056: CC50/EC50; for EC50: Human immunodeficiency virus 1, MT4, read-out: EC50 RES056; for RF RES056: ratio of EC50 (resistant viral strain)/EC50 (wild-type viral strain)
WT HIV-1 RT = WT HIV-1 RT (Human immunodeficiency virus type 1 group M subtype B, UniProt P03366); test: Recombinant HIV-1 RT inhibitory assay; assay type: biochemical
[8] = Cytotoxicity in mock-infected MT-4 cell cultures, MTT method; conditions: human, mock-infected MT-4 cells

SMILES	EC50 (WT HIV-1 (IIIB)) [nM]	SI IIIB (WT HIV-1 (IIIB))	EC50 (HIV-2 strain (ROD)) [nM]	SI L100I [1]	EC50 [1] [nM]	RF L100I [1]	SI K103N [2]	EC50 [2] [nM]	RF K103N [2]	EC50 [3] [nM]	RF Y181C [3]	EC50 [4] [nM]	RF Y188L [4]	EC50 [5] [nM]	RF E138K [5]	EC50 [6] [nM]	RF F227L + V106A [6]	EC50 [7] [nM]	RF RES056 [7]	CC50 at 5 days [8] [nM]	also measured
Cc1cc(-c2ccco2)cc(C)c1Oc1nc(NC2CCN(Cc3ccc(S(N)(=O)=O)cc3)CC2)nc2ccsc12 [Compound 11, 4-((4-((4-(4-(Furan-2-yl)-2,6-dimethylphenoxy)thieno[3,2-d]pyrimidin-2-yl)amino)piperidin-1-yl)methyl)benzenesulfonamide]	17.7 ± 4.83	762	4150 ± 1780	151	89.3 ± 23	5.0	651	20.7 ± 2.75	1.2	63.5 ± 8.75	3.6	53.4 ± 2.15	3.0	49.9 ± 0.35	2.8	85.7 ± 9.71	4.8	565 ± 22.5	31.9	13500 ± 3940	SI ROD (HIV-2 strain (ROD)): 3; SI Y181C [3]: 213; SI Y188L [4]: 253; SI E138K [5]: 271; SI F227L + V106A [6]: 158; SI RES056 [7]: 24; IC50 (WT HIV-1 RT): 243 ± 37 nM
Cc1cc(-c2ccco2)cc(C)c1Oc1nc(NC2CCN(Cc3ccc(C(N)=O)cc3)CC2)nc2ccsc12 [Compound 12, 4-((4-((4-(4-(Furan-2-yl)-2,6-dimethylphenoxy)thieno[3,2-d]pyrimidin-2-yl)amino)piperidin-1-yl)methyl)benzamide]	93.3 ± 82.8	310	25300	70	414 ± 37.9	4.4	224	129 ± 5.87	1.4	511 ± 77.2	5.5	307 ± 58.2	3.3	287 ± 4.98	3.1	1110 ± 269	11.9	2900 ± 119	31.1	28900 ± 15600	SI ROD (HIV-2 strain (ROD)): 1; SI Y181C [3]: 57; SI Y188L [4]: 94; SI E138K [5]: 101; SI F227L + V106A [6]: 26; SI RES056 [7]: 10; IC50 (WT HIV-1 RT): 901 ± 45 nM
Cc1cc(-c2ccoc2)cc(C)c1Oc1nc(NC2CCN(Cc3ccc(S(N)(=O)=O)cc3)CC2)nc2ccsc12 [Compound 13, 4-((4-((4-(4-(Furan-3-yl)-2,6-dimethylphenoxy)thieno[3,2-d]pyrimidin-2-yl)amino)piperidin-1-yl)methyl)benzenesulfonamide]	63.6 ± 11.4	246	6800 ± 1220	84	186 ± 29.4	2.9	249	62.9 ± 10.4	1.0	197 ± 16.1	3.1	133 ± 3.35	2.1	193 ± 14.8	3.0	358 ± 18.4	5.6	1190 ± 184	18.8	15600 ± 4970	SI ROD (HIV-2 strain (ROD)): 2; SI Y181C [3]: 79; SI Y188L [4]: 117; SI E138K [5]: 81; SI F227L + V106A [6]: 44; SI RES056 [7]: 13; IC50 (WT HIV-1 RT): 265 ± 59 nM
Cc1cc(-c2ccoc2)cc(C)c1Oc1nc(NC2CCN(Cc3ccc(C(N)=O)cc3)CC2)nc2ccsc12 [Compound 14, 4-((4-((4-(4-(Furan-3-yl)-2,6-dimethylphenoxy)thieno[3,2-d]pyrimidin-2-yl)amino)piperidin-1-yl)methyl)benzamide]	57.5 ± 12.7	275	3180 ± 832	60	262 ± 75	4.6	212	74.8 ± 2.93	1.3	180 ± 33.4	3.1	222 ± 30.5	3.9	177 ± 2.93	3.1	525 ± 21.1	9.1	813 ± 177	14.1	15800 ± 7040	SI ROD (HIV-2 strain (ROD)): 5; SI Y181C [3]: 88; SI Y188L [4]: 71; SI E138K [5]: 89; SI F227L + V106A [6]: 30; SI RES056 [7]: 19; IC50 (WT HIV-1 RT): 249 ± 1 nM
Cc1cc(-c2cccs2)cc(C)c1Oc1nc(NC2CCN(Cc3ccc(S(N)(=O)=O)cc3)CC2)nc2ccsc12 [Compound 15, 4-((4-((4-(2,6-Dimethyl-4-(thiophen-2-yl)phenoxy)thieno[3,2-d]pyrimidin-2-yl)amino)piperidin-1-yl)methyl)benzenesulfonamide]	49.5 ± 14.8	435	5110 ± 1710	220	97.9 ± 62.4	2.0	932	23.1 ± 2.56	0.5	91.7 ± 18.2	1.9	106 ± 43.6	2.1	124 ± 88.7	2.5	56.7 ± 16.2	1.1	999 ± 151	20.2	21500 ± 890	SI ROD (HIV-2 strain (ROD)): 4; SI Y181C [3]: 235; SI Y188L [4]: 203; SI E138K [5]: 173; SI F227L + V106A [6]: 380; SI RES056 [7]: 22; IC50 (WT HIV-1 RT): 227 ± 46 nM
Cc1cc(-c2cccs2)cc(C)c1Oc1nc(NC2CCN(Cc3ccc(C(N)=O)cc3)CC2)nc2ccsc12 [Compound 16, 4-((4-((4-(2,6-Dimethyl-4-(thiophen-2-yl)phenoxy)thieno[3,2-d]pyrimidin-2-yl)amino)piperidin-1-yl)methyl)benzamide]	203 ± 51.5	≥101	> 20500	≥ 28	731 ± 274	3.6	≥ 111	184 ± 90.2	0.9	731 ± 198	3.6	619 ± 3.59	3.0	662 ± 58.4	3.3	1090 ± 226	5.4	10000	49.2	≥ 20500	SI Y181C [3]: ≥ 28; SI Y188L [4]: ≥ 33; SI E138K [5]: ≥ 31; SI F227L + V106A [6]: ≥ 19; SI RES056 [7]: ≥ 2; IC50 (WT HIV-1 RT): 595 ± 44 nM
Cc1cc(-c2ccsc2)cc(C)c1Oc1nc(NC2CCN(Cc3ccc(C(N)=O)cc3)CC2)nc2ccsc12 [Compound 18, 4-((4-((4-(2,6-Dimethyl-4-(thiophen-3-yl)phenoxy)thieno[3,2-d]pyrimidin-2-yl)amino)piperidin-1-yl)methyl)benzamide]	240 ± 94.3	71	> 17000	18	925 ± 286	3.8	99	171 ± 56.9	0.7	741 ± 154	3.1	628 ± 49.6	2.6	739 ± 318	3.1	854 ± 186	3.6	4520 ± 1450	18.8	17000 ± 12900	SI ROD (HIV-2 strain (ROD)): <1; SI Y181C [3]: 23; SI Y188L [4]: 27; SI E138K [5]: 23; SI F227L + V106A [6]: 20; SI RES056 [7]: 4
O=C1Nc2ccc(Cl)cc2[C@@](C#CC2CC2)(C(F)(F)F)O1 [EFV, efavirenz, reference compound]	5.25 ± 1.98	–	> 5330	–	46.5 ± 9.11	–	–	111 ± 35.4	–	6.33 ± 1.06	–	306 ± 53.9	–	–	–	268 ± 48.7	–	–	–	> 6330	–
Cc1cc(C#N)cc(C)c1Oc1nc(Nc2ccc(C#N)cc2)nc(N)c1Br [ETR, Etravirine, reference compound]	5.03 ± 1.68	–	> 4590	–	6.35 ± 1.77	1.3	–	3.13 ± 0.42	0.6	12.2 ± 2.63	2.4	17.3 ± 5.53	3.5	8.07 ± 2.52	1.6	14.2 ± 5.14	2.8	42.5 ± 15.1	8.4	> 4590	–
Cc1ccnc2c1NC(=O)c1cccnc1N2C1CC1 [NVP, Nevirapine, reference compound]	186 ± 59	–	> 9510	–	1400 ± 828	7.5	–	7820 ± 556	42	> 9510	NA (>51.1)	> 9510	NA (>51)	115 ± 24.5	0.6	> 9510	NA (>51.1)	> 9510	NA (>51.1)	> 9510	–
